Where a SMILES comes first, the peptide text is derived from it. [ ]: non-standard residue; d: D form.
Biological target: T1, IL-1R/IL-1RacP (Sus scrofa, UniProt A0A5G2QSI4)
T1 construct: Slices of brain exposing the pial vessels; from tissue; host or cells: piglet brain slices, pial vessels
T1 sequence (A0A5G2QSI4 21-572): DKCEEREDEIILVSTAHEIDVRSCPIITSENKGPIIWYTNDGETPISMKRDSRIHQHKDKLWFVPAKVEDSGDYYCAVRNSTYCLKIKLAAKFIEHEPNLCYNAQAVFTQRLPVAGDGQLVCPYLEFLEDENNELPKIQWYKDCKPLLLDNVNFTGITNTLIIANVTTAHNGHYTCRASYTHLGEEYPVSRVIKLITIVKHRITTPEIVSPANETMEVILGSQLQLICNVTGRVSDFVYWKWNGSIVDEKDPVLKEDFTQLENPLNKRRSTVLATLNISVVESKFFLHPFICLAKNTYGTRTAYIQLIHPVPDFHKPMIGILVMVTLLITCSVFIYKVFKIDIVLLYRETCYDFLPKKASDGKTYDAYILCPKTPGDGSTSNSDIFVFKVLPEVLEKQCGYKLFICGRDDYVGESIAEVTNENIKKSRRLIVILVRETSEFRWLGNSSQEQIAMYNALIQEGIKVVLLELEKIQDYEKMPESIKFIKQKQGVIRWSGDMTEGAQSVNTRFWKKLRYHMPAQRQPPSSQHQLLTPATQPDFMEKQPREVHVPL
Assay: Vasomotricity of piglet pial vessels (IL-1β induced vasodilation)
Conditions: vasodilation induced by IL-1
Method: In another experiment, vasomotricity variation of piglets pial vessels was studied to further evaluate the particular effect of cytokine receptor subfragments on the vasodilatator effect of IL-1β. Brains were dissected from Yorkshire piglets. Slices of brain exposing the pial vessels were pinned to a wax base of a 20 ml bath containing Krebs buffer (pH 7.4) equilibrated with 95% O2-5% CO2 and maintained at 37° C. Microvessels were visualized and recorded using a video camera mounted on a dissecting microscope. Vascular diameter was measured using a digital image analyzer and the images were recorded before and after topical application of constricting agent U46619 at 10^−7M. After stabilization of the vasomotricity, IL-1 ? was added until stabilization of vasodilatation. Peptides were then injected at different concentrations from 10^−10 to 10^−5M. Reversal of vasodilatation (i.e., vasoconstriction) was visualized and measured as described above. IL-1 ? induced vasodilatation in the microvasculature of the piglet brain was observed. Examples of the inhibitory activity of cytokine subfragment peptides are given below.

potency relative to API-101: 100 fold
Compound: CC(C)C[C@@H](NC(=O)[C@@H](CCC(=O)O)NC(=O)[C@H](NC(=O)[C@H](NC(=O)[C@@H](Cc1ccc(O)cc1)NC(=O)[C@H](N)CCCNC(=N)N)[C@H](C)O)C(C)C)C(=O)N[C@H](C)C(N)=O [API-101.10, RYTVELA] (H-[dR][dY][dT][dV][dE][dL][dA]-NH2; N-terminus and C-terminus assumed)
